19 compounds from US11066396B2 (priority 2016, dated 2021) can be followed below.

Experiment [1] deals with HDAC1 (Homo sapiens (Human), UniProt Q13547). Conditions: read-out: HDAC1 IC50.
Experiment [2] addresses HDAC5 (Homo sapiens (Human), UniProt Q9UQL6). Particulars: read-out: HDAC5 IC50.
Experiment [3] concerns the target HDAC8 (Homo sapiens (Human), UniProt Q9BY41). Particulars: read-out: HDAC8 IC50.

Chain of HDAC1 (Q13547 whole entry): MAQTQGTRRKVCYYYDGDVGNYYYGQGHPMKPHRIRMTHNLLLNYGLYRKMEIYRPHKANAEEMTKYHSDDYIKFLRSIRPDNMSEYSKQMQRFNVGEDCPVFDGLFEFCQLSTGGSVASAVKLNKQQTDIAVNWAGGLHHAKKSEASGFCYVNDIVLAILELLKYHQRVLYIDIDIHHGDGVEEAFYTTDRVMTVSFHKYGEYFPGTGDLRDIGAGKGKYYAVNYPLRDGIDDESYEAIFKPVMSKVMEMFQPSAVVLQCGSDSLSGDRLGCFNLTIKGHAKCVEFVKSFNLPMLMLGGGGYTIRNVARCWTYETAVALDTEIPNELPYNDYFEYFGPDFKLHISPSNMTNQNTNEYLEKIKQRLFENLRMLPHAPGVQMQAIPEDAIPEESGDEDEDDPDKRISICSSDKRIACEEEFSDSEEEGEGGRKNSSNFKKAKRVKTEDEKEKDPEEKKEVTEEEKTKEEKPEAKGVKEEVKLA
Chain of HDAC5 (Q9UQL6 656-1122): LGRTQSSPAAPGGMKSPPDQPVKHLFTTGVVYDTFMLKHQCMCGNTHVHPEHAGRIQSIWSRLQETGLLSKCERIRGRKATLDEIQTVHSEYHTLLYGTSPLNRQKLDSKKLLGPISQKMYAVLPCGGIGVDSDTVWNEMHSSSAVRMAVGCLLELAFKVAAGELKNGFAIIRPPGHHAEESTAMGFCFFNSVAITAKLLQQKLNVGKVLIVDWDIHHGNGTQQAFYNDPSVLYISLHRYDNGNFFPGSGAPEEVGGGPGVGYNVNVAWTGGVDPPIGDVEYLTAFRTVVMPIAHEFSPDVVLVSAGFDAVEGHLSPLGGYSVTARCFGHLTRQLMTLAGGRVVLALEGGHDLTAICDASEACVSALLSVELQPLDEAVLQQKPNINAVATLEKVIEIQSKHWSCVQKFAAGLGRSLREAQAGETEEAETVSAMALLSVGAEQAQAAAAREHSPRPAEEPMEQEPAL
Chain of HDAC8 (Q9BY41 whole entry): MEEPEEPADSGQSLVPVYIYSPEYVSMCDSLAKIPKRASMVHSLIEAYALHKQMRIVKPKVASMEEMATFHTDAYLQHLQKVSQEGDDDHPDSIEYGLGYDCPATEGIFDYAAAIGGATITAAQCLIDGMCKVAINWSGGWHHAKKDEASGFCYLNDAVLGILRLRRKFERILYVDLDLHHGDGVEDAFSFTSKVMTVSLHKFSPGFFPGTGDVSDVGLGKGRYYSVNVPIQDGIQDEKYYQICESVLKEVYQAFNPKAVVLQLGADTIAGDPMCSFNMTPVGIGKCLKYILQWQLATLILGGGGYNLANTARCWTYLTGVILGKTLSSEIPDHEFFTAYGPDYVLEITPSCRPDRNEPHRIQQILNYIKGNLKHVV

With `Fc1cc(COc2cnc3c(c2)COC3)ccc1-c1noc(C(F)(F)F)n1` [Example 245, 3-({3-fluoro-4-[5-(trifluoromethyl)-1,2,4-oxadiazol-3-yl]phenyl}methoxy)-5,7-dihydrofuro[3,4-b]pyridine], the IC50 – broadly, the midpoint of a concentration-inhibition curve – in experiment [1] came to 1500 nM; in experiment [2], 180 nM; in experiment [3], 3400 nM.
The matching figures for `FC(F)(F)c1nc(-c2ccnc(OCCc3cccc4cn[nH]c34)c2)no1` [Example 167]: 2500 nM, 900 nM and 480 nM.
Regarding `O=C1CNCC(c2ccccc2)N1c1ccc(-c2noc(C(F)(F)F)n2)cc1` (stereo not drawn) [Example 39, 6-phenyl-1-(4-(5-(trifluoromethyl)-1,2,4-oxadiazol-3-yl)phenyl)piperazin-2-one], the IC50 amounted to 550 nM in experiment [1], 25 nM in experiment [2] and 1600 nM in experiment [3].
On the same counts, the results for `CC1(C(=O)NC(Cc2ccc(-c3noc(C(F)(F)F)n3)cn2)c2cccc(C(F)(F)F)c2)COC1` (racemic) [Example 482, 3-methyl-N-(2-{5-[5-(trifluoromethyl)-1,2,4-oxadiazol-3-yl]pyridin-2-yl}-1-[3-(trifluoromethyl)phenyl]ethyl)oxetane-3-carboxamide] are 790 nM, 480 nM and 8500 nM.
For `Fc1ccccc1OCc1ccc(-c2noc(C(F)(F)F)n2)cn1` [Example 251, 2-[(2-fluorophenoxy)methyl]-5-[5-(trifluoromethyl)-1,2,4-oxadiazol-3-yl]pyridine], the figures for the IC50 in experiment [1], in experiment [2] and in experiment [3] were 1200 nM, 190 nM and 3500 nM, respectively.
As for `Fc1cc(COc2ccc3ncnn3c2)ccc1-c1noc(C(F)(F)F)n1` [Example 240, 6-({3-fluoro-4-[5-(trifluoromethyl)-1,2,4-oxadiazol-3-yl]phenyl}methoxy)[1,2,4]triazolo[1,5-a]pyridine], the IC50 in experiment [1] is 1500 nM; in experiment [2], 78 nM; in experiment [3] it was 11000 nM.
For `O=C(NC(Cc1ccc(-c2noc(C(F)(F)F)n2)cn1)c1cccc(C(F)(F)F)c1)C(F)(F)F` (stereo not drawn) [Example 176, 2,2,2-Trifluoro-N-(2-(5-(5-(trifluoromethyl)-1,2,4-oxadiazol-3-yl)pyridin-2-yl)-1-(3-(trifluoromethyl)phenyl)ethyl)acetamide], the results for the IC50 in experiment [1], in experiment [2] and in experiment [3] were 1300 nM, 320 nM and 45000 nM, respectively.
The matching figures for `Cc1noc([C@@H]2CCCCN2c2ccc(-c3noc(C(F)(F)F)n3)cn2)n1` [Example 140, (S)-3-methyl-5-(1-(5-(5-(trifluoromethyl)-1,2,4-oxadiazol-3-yl)pyridin-2-yl)piperidin-2-yl)-1,2,4-oxadiazole]: 930 nM, 150 nM and 1000 nM.
On to `Cc1nc(Cl)cnc1COc1ccc(-c2noc(C(F)(F)F)n2)cn1` [Example 184, 3-(6-((5-Chloro-3-methylpyrazin-2-yl)methoxy)pyridin-3-yl)-5-(trifluoromethyl)-1,2,4-oxadiazole], for which the concentration for half-maximal inhibition (IC50) in experiment [1] was determined as 2300 nM; in experiment [2], 1100 nM; in experiment [3], 2700 nM.
`CC1(C)CCCCN1C(=O)[C@@H]1CCC(=O)N1c1ccc(-c2noc(C(F)(F)F)n2)c(F)c1` [Example 343, (5S)-5-[(2,2-dimethylpiperidin-1-yl)carbonyl]-1-{3-fluoro-4-[5-(trifluoromethyl)-1,2,4-oxadiazol-3-yl]phenyl}pyrrolidin-2-one]: the 50% inhibitory concentration (IC50) in experiment [1] was found to be 24000 nM; in experiment [2], 3000 nM; in experiment [3], 25000 nM.
The matching figures for `Fc1c(-c2noc(C(F)(F)F)n2)ccnc1OCc1nc(C2CC2)no1` [Example 187, 3-Cyclopropyl-5-(((3-fluoro-4-(5-(trifluoromethyl)-1,2,4-oxadiazol-3-yl)pyridin-2-yl)oxy)methyl)-1,2,4-oxadiazole]: 1500 nM, 220 nM and 1500 nM.
`Cc1nc2ccc(F)cc2n1Cc1ccc(-c2noc(C(F)(F)F)n2)cn1` [Example 465, 6-fluoro-2-methyl-1-({5-[5-(trifluoromethyl)-1,2,4-oxadiazol-3-yl]pyridin-2-yl}methyl)-1H-benzimidazole]: the 50% inhibitory concentration (IC50) in experiment [1] is 720 nM; in experiment [2], 36 nM; in experiment [3] it was 5600 nM.
For `CCc1nnc([C@@H]2CCC(=O)N2c2cc(F)c(-c3noc(C(F)(F)F)n3)cc2F)o1` [Example 105, (S)-1-(2,5-difluoro-4-(5-(trifluoromethyl)-1,2,4-oxadiazol-3-yl)phenyl)-5-(5-ethyl-1,3,4-oxadiazol-2-yl)pyrrolidin-2-one], the IC50 is 710 nM in experiment [1], 18 nM in experiment [2] and 6600 nM in experiment [3].
For the compound `O=C(C(Cc1ccc(-c2noc(C(F)(F)F)n2)cn1)c1cccc(C(F)(F)F)c1)N1CC[S+]([O-])CC1` (racemic) [Example 199, 4-(3-{5-[5-(trifluoromethyl)-1,2,4-oxadiazol-3-yl]pyridin-2-yl}-2-[3-(trifluoromethyl)phenyl]propanoyl)-llambda~4~,4-thiazinan-1-one], the values for the IC50 in experiment [1], in experiment [2] and in experiment [3] were 4100 nM, 2100 nM and 9900 nM, respectively.
On the same counts, the results for `CC(=O)NC(Cc1ccc(-c2noc(C(F)(F)F)n2)cn1)c1cccc(C(F)(F)F)c1` (stereo not drawn) [Example 177, N-(2-(5-(5-(Trifluoromethyl)-1,2,4-oxadiazol-3-yl)pyridin-2-yl)-1-(3-(trifluoromethyl)phenyl)ethyl)acetamide] are 530 nM, 420 nM and 4500 nM.
For `CC(C)NC(=O)OCc1ccc(-c2noc(C(F)(F)F)n2)cn1` [Example 192, (5-(5-(Trifluoromethyl)-1,2,4-oxadiazol-3-yl)pyridin-2-yl)methyl isopropylcarbamate], the IC50 in experiment [1] is 660 nM; in experiment [2], 640 nM; in experiment [3], 1800 nM.
Turning to `O=C(CN1CCOCC1)NC(Cc1ccc(-c2noc(C(F)(F)F)n2)cn1)c1cccc(C(F)(F)F)c1` (racemic) [Example 485, 2-(morpholin-4-yl)-N-(2-{5-[5-(trifluoromethyl)-1,2,4-oxadiazol-3-yl]pyridin-2-yl}-1-[3-(trifluoromethyl)phenyl]ethyl)acetamide], the half-maximal inhibitory concentration (IC50) is 1100 nM in experiment [1], 1100 nM in experiment [2] and 11000 nM in experiment [3].
Turning to `CC(C(=O)N(Cc1ccc(-c2noc(C(F)(F)F)n2)cn1)c1cccc(F)c1)c1ccn(C)n1` (racemic) [Example 58, N-(3-fluorophenyl)-2-(1-methyl-1H-pyrazol-3-yl)-N-((5-(5-(trifluoromethyl)-1,2,4-oxadiazol-3-yl)pyridin-2-yl)methyl)propanamide], the 50% inhibitory concentration (IC50) in experiment [1] was 220 nM; in experiment [2], 730 nM; in experiment [3], 1700 nM.
For the compound `CC(Oc1cc(-c2noc(C(F)(F)F)n2)ccn1)c1nc2ccccc2[nH]1` (racemic) [Example 203, 2-[1-({4-[5-(trifluoromethyl)-1,2,4-oxadiazol-3-yl]pyridin-2-yl}oxy)ethyl]-1H-benzimidazole], the half-maximal inhibitory concentration (IC50) in experiment [1] was 130 nM; in experiment [2], 130 nM; in experiment [3], 900 nM.
